From patent publication US10017523B2, “NAMPT inhibitors and methods” (Genzyme Corporation, priority 2014, dated 2018)

Assays:
[1] = test system: HCT116 solid tumor model; assay: HCT116 tumor growth study; format: in vivo, Female athymic nude mice; details: oral twice daily
Description: Tumor Growth Study: Female athymic nude mice (Crl:NU(Ncr)-Foxn1nu, Charles River) (n=10/group) were injected with 5×10^6 HCT116 cells, and treatment was initiated at average tumor size of 100 mm^3. 4-(1′-isopropyl-4-oxospiro[chroman-2,4′-piperidin]-6-yl)-N-((3-methylisoxazol-5-yl)methyl)benzamide and vehicle control were administered orally twice daily for 8 days. Tumor size was measured twice weekly with calipers.
4-(1′-isopropyl-4-oxospiro[chroman-2,4′-piperidin]-6-yl)-N-((3-methylisoxazol-5-yl)methyl)benzamide was also tested in the HCT116 solid tumor model.

[2] = target: T1, Recombinant NAMPT enzyme (Homo sapiens, UniProt P43490); assay: Inhibition of NAMPT enzymatic activity; format: biochemical; details: for IC50: 6 hours at 37° C., NMN product detected
T1 construct: purchased MBL
T1 sequence (P43490 whole entry): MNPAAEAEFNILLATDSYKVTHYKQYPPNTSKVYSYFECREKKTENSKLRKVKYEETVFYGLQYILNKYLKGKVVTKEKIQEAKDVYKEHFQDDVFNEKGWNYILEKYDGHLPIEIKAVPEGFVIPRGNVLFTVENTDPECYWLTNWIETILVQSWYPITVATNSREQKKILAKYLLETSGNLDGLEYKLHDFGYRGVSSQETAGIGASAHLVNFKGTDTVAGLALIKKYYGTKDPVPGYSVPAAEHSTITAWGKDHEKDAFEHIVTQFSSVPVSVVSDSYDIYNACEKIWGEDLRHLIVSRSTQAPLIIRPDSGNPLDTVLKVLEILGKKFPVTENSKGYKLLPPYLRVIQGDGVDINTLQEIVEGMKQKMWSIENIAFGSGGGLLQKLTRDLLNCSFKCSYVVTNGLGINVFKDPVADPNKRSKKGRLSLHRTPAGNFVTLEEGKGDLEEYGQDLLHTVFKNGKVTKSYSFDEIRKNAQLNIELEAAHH
Description: Recombinant NAMPT enzyme (MBL) was briefly pre-incubated in the absence or presence of inhibitor followed by addition of nicotinamide. Enzymatic reaction was allowed to proceed for 6 hours at 37° C. Reaction was terminated and NMN reaction product detected using the method as described in: Zhang R Y, Qin Y, Lv X Q, Wang P, Xu T Y, Zhang L, Miao C Y., Anal. Biochem. 2011 May 1; 412(1):18-25.
(§1) The 50% inhibitory concentration (IC50) is the concentration at which 50% of the maximal activity was inhibited.

[3] = test system: Sup-B15 cells; assay: Mechanism of action: NMN rescue of viability; format: cell-based, human; details: 200 μM NMN, 72 hours
Description: Sup-B15 cells (ATCC) were incubated in media lacking or containing 200 μM nicotinamide mononucleotide (NMN) (Sigma) in the absence or presence of inhibitor for 72 hours at 37° C./5% CO2 prior to viability determination using CellTiterGlo (Promega) per manufacturer's instruction.

[4] = test system: acute T-cell leukemia (JURKAT); assay: Anti-proliferative activity on JURKAT cell line; format: cell-based; details: Homo sapiens, 72 h, CellTiterGlo
Description: (§2) Leukemia/Lymphoma cell lines (ATCC) were diluted in vendor-recommended media and incubated in the absence or presence of inhibitor for 72 hours at 37° C./5% CO2 prior to viability determination using CellTiterGlo (Promega) per manufacturer's instruction. The human cell lines studied include acute T-cell leukemia (JURKAT), chronic myelogenous leukemia (K562), and B-cell acute lymphocytic leukemia (NALM6 and SUP-B15).

[5] = target: T2, Sup-B15 cell extract (Homo sapiens, UniProt P43490); assay: Chemical proteomics pull-down from Sup-B15 cell extract; format: binding; details: biotinylated derivative, streptavidin beads, elution with free compound, LC/MS
T2 construct: host or cells: Sup-B15 cells
T2 sequence (P43490 whole entry): as above
Description: Chemical proteomics. Sup-B15 cell extract was incubated with a biotinylated derivative of 4-(1′-isopropyl-4-oxospiro[chroman-2,4′-piperidin]-6-yl)-N-((3-methylisoxazol-5-yl)methyl)benzamide, followed by collection of compound/protein complexes with streptavidin beads (Invitrogen). […] Following SDS-PAGE, one prominent band was excised and identified by LC/MS as NAMPT.

[6] = test system: chronic myelogenous leukemia (K562); assay: Anti-proliferative activity on K562 cell line; format: cell-based; details: Homo sapiens, K562, 72 h, CellTiterGlo
Description: as §2

[7] = test system: primary human T cells; assay: Anti-proliferative activity on T cells (CD3/CD28 stimulated, CellTiterGlo); format: cell-based; details: T-cell, 72 h, CD3/CD28 beads
Description: (§3) Fresh primary human T cells obtained from Analytical Biological Services (Wilmington, Del.) were diluted to 1×10^^6 cells per ml in AIM-V medium (Invitrogen), and stimulated with CD3/CD28 beads (Invitrogen) in the absence or presence of inhibitor for 72 hours at 37° C./5% CO2 prior to viability determination using CellTiterGlo (Promega) per manufacturer's instruction.
as §1

[8] = test system: B-cell acute lymphocytic leukemia (SUP-B15); assay: Anti-proliferative activity on SUP-B15 cell line; format: cell-based; details: Homo sapiens, SUP-B15, 72 h, CellTiterGlo
Description: as §2

[9] = test system: B-cell acute lymphocytic leukemia (NALM6); assay: Anti-proliferative activity on NALM6 cell line; format: cell-based; details: Homo sapiens, NALM-6, 72 h, CellTiterGlo
Description: as §2

[10] = test system: NALM6 leukemia model; assay: NALM6 leukemia study (survival); format: in vivo, female CB17SCID/Crl mice; details: i.p. twice daily for 35 days, compared with clofarabine
Description: 4-(1′-isopropyl-4-oxospiro[chroman-2,4′-piperidin]-6-yl)-N-((3-methylisoxazol-5-yl)methyl)benzamide was tested in the NALM6 leukemia model. […] 5×10^^6 NALM-6 cells were injected via tail vein into female CB17SCID/Crl mice (Charles River). One week later, 4-(1′-isopropyl-4-oxospiro[chroman-2,4′-piperidin]-6-yl)-N-((3-methylisoxazol-5-yl)methyl)benzamide was administered by i.p. injection twice daily for 35 days. Clofarabine was administered once daily by i.p. injection once daily for 5 days for four weeks. Study endpoint was survival time, and mice were sacrificed upon appearance of systemic signs of severe disease such as paralysis or cachexia.

[11] = test system: primary human B cells; assay: Anti-proliferative activity on B cells (anti-IgM stimulated, CellTiterGlo); format: cell-based; details: B-cell, 72 h, anti-IgM 10 ug/ml
Description: as §3, with “human B” for “human T”, “with anti-IgM (10 ug/ml) (KPL)” for “with CD3/CD28 beads (Invitrogen)”
as §1

Row | SMILES | mortality in the treated group [1] [%] | persistence of tumor growth delay after dosing was stopped [1] | tumor growth [1] | inhibition of NAMPT enzyme activity [2] | IC50 [2] [nM] | effect of NMN on anti-proliferative activity [3] | IC50 [4] [nM] | molecular target identified [5] | IC50 [6] [nM] | IC50 [7] [nM] | IC50 [8] [nM] | IC50 [9] [nM] | survival [10] | IC50 [11] [nM]
1 | Cc1cc(CNC(=O)c2ccc(-c3ccc4c(c3)C(=O)CC3(CCN(C(C)C)CC3)O4)cc2)on1 [4-(1′-isopropyl-4-oxospiro[chroman-2,4′-piperidin]-6-yl)-N-((3-methylisoxazol-5-yl)methyl)benzamide] | 10 | persisted for at least one week after dosing was stopped | significant tumor growth delay | potently inhibits NAMPT enzyme activity | 0.9 | counteracted by NMN | 17.9 | nicotinamide phosphoribosyl transferase (NAMPT) | 68.1 | 4380 | 2.44 | 15 | significant survival benefit in this xenograft model, in excess of the standard of care (clofarabine) | 22.7
2 | Cc1ccc(CNC(=O)c2ccc(-c3ccc4c(c3)C(=O)N(C)C3(CCN(C(C)C)CC3)O4)cc2)cn1 [4-(1′-isopropyl-3-methyl-4-oxo-3,4-dihydrospiro[benzo[e][1,3]oxazine-2,4′-piperidin]-6-yl)-N-((6-methylpyridin-3-yl)methyl)benzamide] | – | – | – | – | 2 | – | 7.67 | – | 28.3 | 4620 | 0.663 | 5.26 | – | 15.3
3 | CCCN1CCC2(CC1)CC(=O)c1cc(-c3ccc(C(=O)NCc4cc(C)no4)cc3)ccc1O2 [N-((3-methylisoxazol-5-yl)methyl)-4-(4-oxo-1′-propylspiro[chroman-2,4′-piperidin]-6-yl)benzamide] | – | – | – | – | 2 | – | 7.78 | – | 25 | 677 | 2.07 | 6.74 | – | 12.9
4 | CCCN1CCC2(C=Cc3cc(-c4ccc(C(=O)NCc5cc(C)no5)cn4)ccc3O2)CC1 [N-((3-methylisoxazol-5-yl)methyl)-6-(1′-propylspiro[chromene-2,4′-piperidin]-6-yl)nicotinamide] | – | – | – | – | 1 | – | 6.38 | – | 25.8 | 342 | 1.04 | 3.63 | – | 4.4
5 | O=C(NCc1cncc(F)c1)c1ccc(-c2ccc3c(n2)C(=O)CC2(CCN(CC4CCC4)CC2)O3)cc1 [4-(1-(cyclobutylmethyl)-4′-oxo-3′,4′-dihydrospiro[piperidine-4,2′-pyrano[3,2-b]pyridin]-6′-yl)-N-((5-fluoropyridin-3-yl)methyl)benzamide] | – | – | – | – | 66.4 | – | 154 | – | 332 | 3990 | 7.29 | 48.9 | – | 83
6 | CC(C)N1CCC2(CC1)CC(=O)c1cc(-c3ccc(C(=O)NCc4cncc(F)c4)cc3)ccc1O2 [N-((5-fluoropyridin-3-yl)methyl)-4-(1′-isopropyl-4-oxospiro[chroman-2,4′-piperidin]-6-yl)benzamide] | – | – | – | – | 5.5 | – | 20.4 | – | 78.8 | 3300 | 1.1 | 8.8 | – | 7.9
7 | CCCCN1CCC2(CC1)CC(=O)c1cc(-c3ccc(C(=O)NCc4cncs4)cn3)ccc1O2 [6-(1′-butyl-4-oxospiro[chroman-2,4′-piperidin]-6-yl)-N-(thiazol-5-ylmethyl)nicotinamide] | – | – | – | – | 29.9 | – | 8.85 | – | 19.8 | 1880 | 1.03 | 5.73 | – | 24.8
8 | CC(C)N1CCC2(CC1)CC(=O)c1cc(-c3ccc(C(=O)NCc4cccnc4F)cc3)ccc1O2 [N-((2-fluoropyridin-3-yl)methyl)-4-(1′-isopropyl-4-oxospiro[chroman-2,4′-piperidin]-6-yl)benzamide] | – | – | – | – | 1 | – | 3.66 | – | 2.94 | 5790 | 1.47 | 3.48 | – | 9.9
